The text below walks through data of patent US20240209456A1, “METHODS AND COMPOSITIONS RELATED TO CELL-CYCLE RNA's” (BETH ISRAEL DEACONESS MEDICAL CENTER, priority 2021, published 2024).

Common to all, as to format: cell-based, human
In assay [1] the test system is HL-60 cells. In words: nasRNA-seq, genome wide transcription inhibition upon DRB and ActD treatment. Particulars: HL-60 released from double thymidine block, 2 hr, DRB 200 μM, ActD 0.8 μM; for average gene expression reduction: vs DMSO. On the procedure:
Nascent RNA/DNA capture was performed using Click-iT Nascent RNA Capture Kit (ThermoFisher) according to the manufacturer's instructions with minor modifications. Briefly, 1. Labeling the cells with EU/EdU. 200 mM EU or 30 mM EdU stock solutions were added to the cells, to a final concentration 0.5 mM or 30 μM, respectively. 2. Incubation. The cells were incubated for 1 or 2 hours. 3. RNA/DNA isolation. The cells were harvested and the RNA/DNA were isolated and dissolved in 14 μL of H2O. 4. Biotinylation of RNA/DNA by Click reaction. Click-iT reaction cocktail (50 μL per reaction) was prepared accordingly to manufacturer's instructions: a mixture containing 1× Click-iT EU buffer; 2 mM CuSO4; 1 mM Biotin azide; 13.25 μL of the isolated RNA; 10 mM Click-iT reaction buffer additive 1; 12 mM Click-iT reaction buffer additive 2 was prepared. After adding each component, the reaction cocktail was gently mixed by vortexing. The addition of the Click-iT reaction buffer additive 1 stock initiates the click reaction between the EU-RNA/EdU-DNA and biotin azide. Afterwards the Click-iT® reaction buffer additive 2 is added and incubated for 30 minutes with gentle vortexing. 5. RNA/DNA precipitation. 1 μL of ULTRAPURE™ Glycogen, 55 μL of 7 M ammonium acetate, and 750 μL of chilled 100% ethanol were added to the click reaction, incubated at −70° C. for at least 30 minutes and after centrifugation the pellet was dissolved in 125 μL of H2O. 6. Binding biotinylated RNA/DNA to Dynabeads® MYONE™ Streptavidin Ti magnetic beads. The RNA/DNA binding reaction mixture included: 125 μL 2×Click-iT RNA binding buffer; 2 μL Ribonuclease Inhibitor or 2 μL of water for DNA; 125 μL of the isolated biotinylated RNA/DNA. The RNA binding reaction mixture was heated at 68-70° C. for 5 minutes and 50 μL of bead suspension added into the heated RNA binding reaction mixture. The tube containing the RNA/DNA binding reaction was incubated at r.t. for 30 min while gently vortexing to prevent the beads from settling. The beads were immobilized using the magnet and washed 5 times with 500 μL of Click-iT® reaction wash buffer 1 and 5 times with 500 μL of Click-iT® reaction wash buffer 2. Finally, the beads were resuspended in 50 μL of Click-iT reaction wash buffer 2 and the captured RNA immediately processed to cDNA synthesis. The captured DNA was released into 50 μL of boiling water and used in qPCR analyses.
Double Thymidine block (early S-phase block) was carried out as described. […] Synchrony was monitored by flow cytometry analysis of propidium iodide-stained cells using a LSRII flow cytometer (BD Biosciences) at the Harvard Stem Cell Institute/Beth Israel Deaconess Center flow cytometry facility. […]

Assay [2] has as its system TIP60. In words: Western blot of total proteins, TIP60. Particulars: HL-60, 2 hours treatment, FIG. 10A. On the procedure:
(§1) Whole-cell lysates from approximately 0.2×10^6 cells per each sample were separated on 12% SDS-PAGE gels and transferred to a nitrocellulose membrane. Immunoblots were stained overnight at 4° C. with the following primary antibodies: H2A.Z (1:2,000; Abcam ab4174), H2A.Z acetyl (K4+K7+K11) (1:2,000; Abcam ab18262) or TIP60 (1:1000; generous gift from Bruno Amati). All secondary horseradish peroxidase (HRP)-conjugated antibodies were diluted 1:5,000 and incubated for 1 hr at room temperature with TBST/5% BSA. Immuno-reactive proteins were detected using the Pierce® ECL system (Thermo Scientific #32106).

In assay [3] the test system is acH2A.Z. Kind of assay: Western blot of total proteins, acH2A.Z normalized by H2A.Z. The note with it: HL-60, 2 hours; 200 μM MG149, 500 μM TH1834. On the procedure:
as §1

Assay [4] relates to c-MYC mRNA. In words: qRT-PCR of c-MYC mRNA. Particulars: HL-60 released from double thymidine block, 2 hrs; MG149 200 μM, TH1834 500 μM. The procedure:
Total RNA isolation was carried out and all RNA samples used in this study were treated with DNase I (10 U of DNase I per 3 μg of total RNA; 37° C. for one hour; in the presence of RNase inhibitor). After DNase I treatment, RNA samples were extracted with acidic phenol (pH 4.3) to eliminate any remaining traces of DNA. cDNA syntheses were performed with Random Primers (Invitrogen) or gene-specific primers with Transcriptor Reverse Transcriptase (Roche Applied Science) according to the manufacturer's recommendation. cDNA was purified with a High Pure PCR Product Purification Kit (Roche Applied Science).
Sybr green reaction was performed using iQ Sybr Green supermix (Biorad, Hercules, CA) using the following parameters: 95° C. (10 min), 40 cycles of 95° C. (15 s) and 60° C. (1 min) 72° C. (1 min). TaqMan analysis was performed using Hotstart Probe One-step qRT-PCR master mix (USB) at the following conditions: 50° C. (10 min.), 95° C. (2 min.), and then 40 cycles of 95° C. (15 sec.) and 60° C. (60 sec.).
Nascent RNA/DNA capture was performed using Click-iT Nascent RNA Capture Kit (ThermoFisher) according to the manufacturer's instructions with minor modifications. Briefly, 1. Labeling the cells with EU/EdU. 200 mM EU or 30 mM EdU stock solutions were added to the cells, to a final concentration 0.5 mM or 30 μM, respectively. 2. Incubation. The cells were incubated for 1 or 2 hours. 3. […]

*1 amine or outer side, *2 acyl side, *3 side chain or, on linkers, in order; H or OH if unused. Where a SMILES comes first, the peptide text is derived from it. Bridges are numbered along the chain shown (N, C = ends). Roman numbers before positions name the chains, in order. [ ]: non-standard residue; d: D form. Actinocin(9to1) = Cc1c2oc3c(C)ccc(C(=O)[*:1])c3nc-2c(C(=O)[*:2])c(N)c1=O; NMeV = CN[C@H](C(=O)O)C(C)C; Sar = CNCC(=O)O

For the compound `Cc1c2oc3c(C)ccc(C(=O)N[C@@H]4C(=O)N[C@H](C(C)C)C(=O)N5CCC[C@H]5C(=O)N(C)CC(=O)N(C)[C@@H](C(C)C)C(=O)O[C@@H]4C)c3nc-2c(C(=O)N[C@@H]2C(=O)N[C@H](C(C)C)C(=O)N3CCC[C@H]3C(=O)N(C)CC(=O)N(C)[C@@H](C(C)C)C(=O)O[C@@H]2C)c(N)c1=O` [ActD, Actinomycin D] (I: T[dV]P[Sar][NMeV] / II: T[dV]P[Sar][NMeV]; ester I:1-I:C, II:1-II:C; linker I:N-II:N via Actinocin(9to1)), in assay [1], the “gene expression reduction ratio across distributions (treated/DMSO)” value turned out to be 0.21 and the “average gene expression reduction” value was 79%. Also, in assay [2], the “overall global content of TIP60” value is given as “not affected”.

As to `OC[C@H]1O[C@@H](n2cnc3cc(Cl)c(Cl)cc32)[C@H](O)[C@@H]1O` [DRB, 5,6-Dichlorobenzimidazole 1-β-D-ribofuranoside], in assay [1], the “gene expression reduction ratio across distributions (treated/DMSO)” value is 0.45 and the “average gene expression reduction” value came out at 55%. Moreover, the “overall global content of TIP60” value in assay [2] is given as “not affected”.

Consider `CCCCCCCc1ccc(CCc2cccc(O)c2C(=O)O)cc1` [MG149], for which the “level of acH2A.Z normalized by H2A.Z” value in assay [3] is reported as “Reduction”. Besides, the “response of total c-MYC mRNA” value in assay [4] is “downregulated”.

For the compound `O=C(O)Cn1nnc(-c2ccc(CN(CCCCOc3ccc(CN4CCCC4)cc3)CCc3ccccc3)cc2)n1` [TH1834], the “level of acH2A.Z normalized by H2A.Z” value in assay [3] was “Reduction”. Further, the “response of total c-MYC mRNA” value in assay [4] was “downregulated”.
